The test system of data set [1] is human monocyte-derived macrophages (hMDMs). The experiment in a line: hMDM cell viability (alamarBlue). The note with it: ERG240 20 mM. The class given is cell-based. As to the method: Migration of BMDMs an d viability of hMDMs
The migration of BMDMs was assessed using a modified Bo yden chamber methodology.
Specificall y, mouse BMDMs were tr ypsinized and suspended in serum free incomplete medi a containing various concentrations of the drug at a cell density of 2.5x10^4 cells/mL. Volumes of 400 µL of cell suspens ions were added onto the upper chamber of 6.5 m m transwell inserts (Costar, Cat. No. 3422), placed in a 24-well plate (Costar). A volume of 1.5 mL of complete media containing 10% FBS as chemo- attractant were added into the lower chambers of the plate. The assa y also included wells with lower chambers containing serum free incomplete media as negative control. […]
(§1) To determine the effect of ERG240 on the total number of BMDMs, cell s were plated onto a 96-well plate at a density of 5,000 cells per well in complete media and allowed to adhere overnight. The cells were then exposed to various drug concentrations overnight and the cell population was quantified with CyQuant Cell Proliferation kit (Life Technologies) using triplicates, in two independent experiments. For hMDMs, cell viability was determined using the alamarBlue® Assa y (Invitrogen). […]
backed up by quantitative proteomics by LC -MS/MS (with maximum of the 12 most abundant multiply -charged ions registered in each survey spectrum selected in a data - […]

In data set [2] the test system is mouse bone marrow derived macrophages (BMDMs). The experiment in a line: BMDM cell number (CyQuant). The note with it: treatment for 24 h. It is filed as cell-based, C57BL/6 mouse.
Description: Figure 6 ERG240 treatment results in reduced macrophage infiltration in CIA and crescentic glomerulonephritis. (a) Inhibition of murine BMDM migration in vitro in the presence of different concentrations of ERG240 by transwell migration assay (left panel, results are presented as the average of four experiments). The drug had no effect on cell viability (right panel, results are presented as the average of three experiments). (b) IHC analysis of CIA joints for expression of F4/80. Representative images show F4/80+ cells (indicated with an arrow). F4/80+ cell quantification is shown on the right panel. (c) Representative images showing glomerular ED1 (rat CD68)-positive cells in ERG240 treated animals following NTN. Percentage of glomerular ED1-positive cell quantification is shown on the right panel. Error bars are s.e.m. […]
The migration of BMDMs was assessed using a modified Bo yden chamber methodology. […]
as §1

Data set [3] in a line: Blood brain barrier crossing. From the text: NCOMMS-16-23550_Point by Point Responses Papathanassiu et al.
6. It would be interesting to know why the half -life in animals is very low. Again, is the drug metabolized by the organism? (see also point 3).
Authors’ reply. The pharmacokinetic study that determined the half -life of the drug in mice […]
ERG240 is completely absorbed and not subject to first -pass metabolism. Since the drug is structurally a leucine analogue, it is likely to be uptaken by the ubiquitously expressed amino acid transporter LAT1. In that light, the low half -life of the drug is related to its complete and swift absorption by various sites rather to a phase I or II metabolic reaction. ERG240 is also […]
preferentially in the brain. […]
metabolism of the drug in human macrophages, please see the response to point 3, which […]
7. Leucine is degraded to acetyl -Coa and acetoacetate both fueling cellular acetyl -Coa pools. Does decreased activity of BCAT1 impact cellular acetyl -Coa and citrate levels? Itaconate synthesis is a sink for citrate and diverts carbon away from the TCA cycle. […]
have measured citrate levels in 4 donors following LPS and LPS + ERG240 treatment for 3 hours by GC-MS. […]
Itaconate levels measured by GC/MS were further confirmed in si-BCAT1 and si-Control MDMs from independent donors (n=4, left panel). […]

On to `CC(=O)C(C)CCC(=O)O` (centres unmarked) [ERG240], for which the “cell viability at 3 and 8 h” value in data set [1] (control and LPS-treated hMDMs) was “did not affect cell viability”. The “cell viability at 24 h” value in data set [1] (only in LPS-stimulated cells) was “modest but significant reduction in cell viability”. The BMDM cell numbers entry in data set [2] is given as “did not affect cell numbers”. In data set [3], the “accumulation in the brain” value is given as “does not accumulate” and the “crossing of the blood brain barrier” value was “capable of crossing the blood brain barrier”.
